These results are taken from patent US7402606B2, “Derivatives of 1-(oxoaminoacetyl) pentylcarbamate as cathepsin K inhibitors for the treatment of bone loss” (SmithKline Beecham Corporation, priority 2002, dated 2008).

Each structure is given as a SMILES string.

The target in this test is T1, human cathepsin K (Homo sapiens, UniProt P43235).
T1 construct: The proform of cathepsin K was converted to mature cathepsin K by brief exposure to pH 4; made in house; host or cells: baculovirus; Trichoplusia ni High Five cells (virus raised in Sf-9)
T1 sequence (P43235 115-329): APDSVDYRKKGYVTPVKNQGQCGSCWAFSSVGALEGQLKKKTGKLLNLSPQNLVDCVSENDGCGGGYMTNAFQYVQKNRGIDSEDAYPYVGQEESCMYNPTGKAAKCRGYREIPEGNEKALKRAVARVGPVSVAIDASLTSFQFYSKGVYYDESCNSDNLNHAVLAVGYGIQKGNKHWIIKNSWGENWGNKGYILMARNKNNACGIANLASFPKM
The experiment in a line: Cathepsin K inhibition assay, human recombinant enzyme, fluorogenic substrate Cbz-Phe-Arg-AMC. Type of test: biochemical. The settings on record: Table 1, human cathepsin K; read-out: h Cat K IC50. As for the experimental part:
All assays for cathepsin K were carried out with human and rat recombinant enzyme. Assays for cathepsins S ? V were also carried out with human recombinant enzyme. Assays for human cathepsins B, H, and L were carried out with enzyme, purchased from Athens Research and Technology, Inc., prepared from human liver tissue. […] A stock substrate solution of Cbz-Phe-Arg-AMC was prepared at a concentration of 50 mM in dimethyl sulfoxide. This substrate was diluted into the assay for a final substrate concentration of 10 μM in the rat cathepsin K, human cathepsin K, and human cathepsin B assays; a final substrate concentration of 5 μM in the human cathepsin L assay; and a final substrate concentration of 2 μM in the human cathepsin V assay.
All assays contained 10% dimethyl sulfoxide. […] All assays were conducted at 30° C. Product fluorescence (excitation at 360 nm; emission at 440 nm, (except cathepsin H which used excitation at 340 nm; emission at 420 nm)) was monitored with a PerSeptive Biosystems Cytofluor II fluorescence plate reader. Product progress curves were generated over 2.3 h monitoring the formation of 7-amino-4-methylcoumarin product (or β-naphthalamide for cathepsin H).
Human and rat Cathepsin K:
Two liters of Spodoptera frugiperda (Sf-9) cells (ATCC) were grown in Grace's Supplemented medium (Life Technologies) supplemented with 2 g/L glucose, 10% fetal bovine serum (HyClone) and 0.1% pluronic F-68 (Life Technologies). […] The cells continued to grow for 72 h post-infection, before the virus was harvested by centrifugation at 1400×g for 30 min.
One and one-half liters of Trichoplusia ni (T. ni) High Five (™) cells [JRH Biosciences, Woodland, Calif. […] The cells were grown for 24 h at 28° C., 50 RPM, and 50% dissolved oxygen. […] Media were separated from cells at a rate of 1 L/min using the Centritech 100 ™ continuous-flow centrifuge (DuPont) operating at 200×g.
Protein Purification: Media (human and rat) were filtered through a Whatman 3 filter, and then loaded onto a 25 mL. Poros HS II (26 mm×47 mm) cation exchange column equilibrated in 25 mM sodium acetate at pH 5.5 (equilibration buffer). The column was washed until the absorbance reached the baseline value, and then the protein was eluted with a linear gradient from 0-2 M sodium chloride in the equilibration buffer. Column fractions were analyzed by SDS-PAGE, N-terminal sequencing, and mass spectrometry. Fractions containing the proform of cathepsin K were pooled and frozen at −80° C. The proform was concentrated in an Amicon Centriprep 10 and fractionated with a Superdex 75 column (26 mm×600 mm, Pharmacia) equilibrated in 400 mM sodium chloride, 25 mM sodium acetate at pH 5.5.
Cathepsin K Activation: The proform of cathepsin K was converted to mature cathepsin K by brief exposure to pH 4 in the presence of 5 mM L-cysteine. Typically, 5 mM L-cysteine was added to 10 mL of approximately 1 mg/mL procathepsin K. One mL of this solution was diluted ten-fold into 450 mM sodium acetate at pH 4.0 containing 5 mM L-cysteine. This solution was reacted at 23° C. for 2 min before neutralization with 2 mL, 1.8 M sodium acetate at pH 6.0. The neutralized sample was added to the remaining 9 mL of procathepsin K. The mixture was incubated at 4° C. for 2-3 days. The activated cathepsin K was chromatographed on a Poros HS II column as described above.
Potential inhibitors were evaluated using the progress curve method. Assays were carried out in the presence of variable concentrations of test compound. Reactions were initiated by addition of buffered solutions of inhibitor and substrate to enzyme. Data analysis was conducted according to one of two procedures depending on the appearance of the progress curves in the presence of inhibitors. […] Ki values were calculated from IC50 values using equation 2 assuming a competitive model.
A word on the IC50: it is the concentration that gives 50% inhibition. For `CCCC[C@H](NC(=O)O[C@@H]1CN(S(=O)(=O)c2ccc3c(c2)OCO3)CC1(C)C)C(=O)C(=O)N[C@H](C)c1ccccc1` [Example 79, (3S)-1-(1,3-Benzodioxol-5-ylsulfonyl)-4,4-dimethylpyrrolidinyl (1S)-1-(oxo{[(1R)-1-phenylethyl]amino}acetyl)pentylcarbamate], the IC50 was in the range of 10 to 100 nM.
To `CCCC[C@H](NC(=O)O[C@@H]1CN(C(=O)NCc2ccccc2)CC1(C)C)C(=O)C(=O)N[C@H](C)c1ccccc1` [Example 64] belongs 1 to 10 nM; to `CNC(=O)NCCCC[C@H](NC(=O)O[C@@H]1C(=O)OCC1(C)C)C(=O)C(=O)N[C@H](C)c1ccccc1` [Example 2, (3S)-4,4-dimethyl-2-oxotetrahydro-3-furanyl (1S)-5-{[(methylamino)carbonyl]amino}-1-(oxo{[(1R)-1-phenylethyl]amino}acetyl)pentylcarbamate], 1 to 10 nM.
To `CCCC[C@H](NC(=O)O[C@@H]1CN(C(=O)Oc2ccc(-c3ccccc3)cc2)CC1(C)C)C(=O)C(=O)N[C@H](C)c1ccccc1` [Example 57, [1,1′-Biphenyl]-4-yl (4S)-3,3-dimethyl-4-[({[(1S)-1-(oxo{[(1R)-1-phenylethyl]amino}acetyl)pentyl]amino}carbonyl)oxy]-1-pyrrolidinecarboxylate] belongs 1 to 10 nM; to `CCCC[C@H](NC(=O)O[C@@H]1CN(C(=O)OCC2CCOC2)CC1(C)C)C(=O)C(=O)N[C@H](C)c1ccccc1` (stereo partly drawn) [Example 49, Tetrahydro-3-furanylmethyl (4S)-3,3-dimethyl-4-[({[(1S)-1-(oxo {[(1R)-1-phenylethyl]amino}acetyl)pentyl]amino}carbonyl)oxy]-1-pyrrolidinecarboxylate], 10 to 100 nM; to `CCCC[C@H](NC(=O)O[C@@H]1CN(C(=O)OCC2CCCO2)CC1(C)C)C(=O)C(=O)N[C@H](C)c1ccccc1` (stereo partly drawn) [Example 41, Tetrahydro-2-furanylmethyl (4S)-3,3-dimethyl-4-[({[(1S)-1-(oxo{[(1R)-1-phenylethyl]amino}acetyl)pentyl]amino}carbonyl)oxy]-1-pyrrolidinecarboxylate], 1 to 10 nM.
To `CCCC[C@H](NC(=O)O[C@@H]1CN(C(=O)OCc2cccc(-c3ccccc3)c2C)CC1(C)C)C(=O)C(=O)N[C@H](C)c1ccccc1` [Example 54, (2-Methyl[1,1′-biphenyl]-3-yl)methyl (4S)-3,3-dimethyl-4-[({[(1S)-1-(oxo{[(1R)-1-phenylethyl]amino}acetyl)pentyl]amino}carbonyl)oxy]-1-pyrrolidinecarboxylate] belongs 10 to 100 nM; to `CCCC[C@H](NC(=O)O[C@@H]1CN(C(=O)NS(=O)(=O)c2ccc(C)cc2)CC1(C)C)C(=O)C(=O)N[C@H](C)c1ccccc1` [Example 76, (3S)-4,4-Dimethyl-1-({[(4-methylphenyl)sulfonyl]amino}carbonyl)pyrrolidinyl (1S)-1-(oxo{[(1R)-1-phenylethyl]amino}acetyl)pentylcarbamate], 100 to 1000 nM; to `CCCC[C@H](NC(=O)O[C@@H]1CN(C(=O)c2csc(-c3snnc3C)n2)CC1(C)C)C(=O)C(=O)N[C@H](C)c1ccccc1` [Example 37, (3S)-4,4-Dimethyl-1-{[2-(4-methyl-1,2,3-thiadiazol-5-yl)-1,3-thiazol-4-yl]carbonyl}pyrrolidinyl (1S)-1-(oxo{[(1R)-1-phenylethyl]amino}acetyl)pentylcarbamate], 10 to 100 nM.
For `CCCC[C@H](NC(=O)O[C@@H]1CN(C(=O)OCCc2scnc2C)CC1(C)C)C(=O)C(=O)N[C@H](C)c1ccccc1` [Example 51, 2-(4-Methyl-1,3-thiazol-5-yl)ethyl (4S)-3,3-dimethyl-4-[({[(1S)-1-(oxo {[(1R)-1-phenylethyl]amino}acetyl)pentyl]amino}carbonyl)oxy]-1-pyrrolidinecarboxylate], the IC50 was in the range of 1 to 10 nM.
As for `CCCC[C@H](NC(=O)O[C@@H]1CN(C(=O)O[C@H]2CCOC2)CC1(C)C)C(=O)C(=O)N[C@H](C)c1ccccc1` [Example 43, (3S)-Tetrahydro-3-furanyl (4S)-3,3-dimethyl-4-[({[(1S)-1-(oxo{[(1R)-1-phenylethyl]amino}acetyl)pentyl]amino}carbonyl)oxy]-1-pyrrolidinecarboxylate], the figure is 10 to 100 nM; as for `CCCC[C@H](NC(=O)O[C@@H]1CN(C(=O)c2snnc2C)CC1(C)C)C(=O)C(=O)N[C@H](C)c1ccccc1` [Example 13, (3S)-4,4-Dimethyl-1-[(4-methyl-1,2,3-thiadiazol-5-yl)carbonyl]pyrrolidinyl (1S)-1-(oxo {[(1R)-1-phenylethyl]amino}acetyl)pentylcarbamate], 10 to 100 nM; as for `CCCC[C@H](NC(=O)O[C@@H]1CN(C(=O)c2csc(-c3ccncc3)n2)CC1(C)C)C(=O)C(=O)N[C@H](C)c1ccccc1` [Example 26, (3S)-4,4-Dimethyl-1-{[2-(4-pyridinyl)-1,3-thiazol-4-yl]carbonyl}pyrrolidinyl (1S)-1-(oxo{[(1R)-1-phenylethyl]amino}acetyl)pentylcarbamate], 10 to 100 nM.
As for `CCCC[C@H](NC(=O)OC1CN(C(=O)Oc2ccccc2)CC1(C)C)C(=O)C(=O)N[C@H](C)c1ccccc1` (stereo partly drawn) [Example 62, Phenyl 3,3-dimethyl-4-[({[(1S)-1-(oxo{[(1R)-1-phenylethyl]amino}acetyl)pentyl]amino}carbonyl)oxy]-1-pyrrolidinecarboxylate], the figure is 10 to 100 nM; as for `CCCC[C@H](NC(=O)O[C@@H]1CN(C(=O)c2ccccc2)CC1(C)C)C(=O)C(=O)N[C@H](C)c1ccccc1` [Example 9], 10 to 100 nM.
As to `CCCC[C@H](NC(=O)O[C@@H]1CN(C(=O)OCc2noc(-c3cccs3)n2)CC1(C)C)C(=O)C(=O)N[C@H](C)c1ccccc1` [Example 55, [5-(2-Thienyl)-1,2,4-oxadiazol-3-yl]methyl (4S)-3,3-dimethyl-4-[({[(1S)-1-(oxo{[(1R)-1-phenylethyl]amino}acetyl)pentyl]amino}carbonyl)oxy]-1-pyrrolidinecarboxylate], the IC50 lay within 10 to 100 nM.
With `CCCC[C@H](NC(=O)O[C@@H]1CN(S(=O)(=O)c2ccccc2)CC1(C)C)C(=O)C(=O)N[C@H](C)c1ccccc1` [Example 77, (3S)-4,4-Dimethyl-1-(phenylsulfonyl)pyrrolidinyl (1S)-1-(oxo{[(1R)-1-phenylethyl]amino}acetyl)pentylcarbamate], the half-maximal inhibitory concentration (IC50) was 1 to 10 nM.
As for `CCCC[C@H](NC(=O)O[C@@H]1CN(C(=O)c2ccc(-c3ccccc3)cc2)CC1(C)C)C(=O)C(=O)N[C@H](C)c1ccccc1` [Example 20], the figure is 1 to 10 nM; as for `CCCC[C@H](NC(=O)O[C@@H]1CN(C(=O)N2CCCC2)CC1(C)C)C(=O)C(=O)N[C@H](C)c1ccccc1` [Example 74, (3S)-4,4-Dimethyl-1-(1-pyrrolidinylcarbonyl)pyrrolidinyl (1S)-1-(oxo{[(1R)-1-phenylethyl]amino}acetyl)pentylcarbamate], 10 to 100 nM; as for `CCCC[C@H](NC(=O)O[C@@H]1CN(C(=O)c2cc(C)on2)CC1(C)C)C(=O)C(=O)N[C@H](C)c1ccccc1` [Example 19, (3S)-4,4-Dimethyl-1-[(5-methyl-3-isoxazolyl)carbonyl]pyrrolidinyl (1S)-1-(oxo {[(1R)-1-phenylethyl]amino}acetyl)pentylcarbamate], 10 to 100 nM.
